# Data from the NIST ThermoML archive (doi:10.1016/j.jct.2005.06.003).
# Numbers after ± are expanded uncertainties.
# Conditions: Liquid, Closed cell (Static) method
SMILES,vapor or sublimation pressure (283.15 K) [kPa],vapor or sublimation pressure (288.15 K) [kPa],vapor or sublimation pressure (293.15 K) [kPa],vapor or sublimation pressure (298.15 K) [kPa],vapor or sublimation pressure (303.15 K) [kPa],vapor or sublimation pressure (308.15 K) [kPa],vapor or sublimation pressure (313.15 K) [kPa],vapor or sublimation pressure (318.15 K) [kPa],vapor or sublimation pressure (323.15 K) [kPa]
"ClC(Cl)C(Cl)Cl [1,1,2,2-tetrachloroethane]",0.263 ± 0.02,0.373 ± 0.02,0.521 ± 0.021,0.711 ± 0.021,0.98 ± 0.022,1.289 ± 0.022,1.701 ± 0.022,2.236 ± 0.023,2.86 ± 0.023
ClC(Cl)=C(Cl)Cl [tetrachloroethene],1.023 ± 0.022,1.4 ± 0.022,1.861 ± 0.022,2.462 ± 0.023,3.205 ± 0.023,4.117 ± 0.024,5.253 ± 0.025,6.621 ± 0.027,8.286 ± 0.028
C1CCOC1 [tetrahydrofuran],10.73 ± 0.032,13.67 ± 0.036,17.25 ± 0.041,21.6 ± 0.047,26.81 ± 0.054,32.94 ± 0.065,40.21 ± 0.077,48.68 ± 0.091,58.54 ± 0.11
